{
  "source": "paper PMC11985408",
  "about": "“Tsrp1 Is a Novel Cyclic Diguanosine Monophosphate Effector that Plays a Role in the Organic-Solvent Tolerance of Rhodococcus ruber” (Journal of Microbiology and Biotechnology, 2025)",
  "molecular_target": "Tsrp1",
  "assay": "localized surface plasmon resonance, Tsrp1 immobilised on NTA chip, one-to-one model",
  "type": "binding, Rhodococcus ruber",
  "conditions": "HEPES-buffered saline pH 7.4; c-di-GMP 62.5-500 μM; unit printed as mM in b36 but μM in abstract; read-out: dissociation constant",
  "data": [
    {"compound": "Nc1nc2c(ncn2[C@@H]2O[C@@H]3COP(=O)(O)O[C@H]4[C@@H](O)[C@H](n5cnc6c(=O)[nH]c(N)nc65)O[C@@H]4COP(=O)(O)O[C@H]3[C@H]2O)c(=O)[nH]1", "note": "[c-di-GMP]", "values": [
      {"measurement": "Kd", "result": "0.064 ± 0.00684", "unit": "mM"}
    ]}
  ]
}
